Consider three molecules from patent US6653303B1, “Cycloalkyl, lactam, lactone and related compounds, pharmaceutical compositions comprising same, and methods for inhibiting β-amyloid peptide release and/or its synthesis by use of such compounds” (Athena Neurosciences, Inc., priority 1996, dated 2003).

The melting point is the temperature, or range, at which the solid turns liquid. `CCC(=S)N[C@@H](C)C(=O)NC1N=C(c2ccccc2)c2ccccc2N(C)C1=O` (stereo partly drawn) gave a melting point of 205 to 206 °C.
Take `CC(Nc1ccc(Cl)c(Cl)c1)C(=O)NC1CCCNC(=O)C1` (racemic) [Example 5-31, 3-(N′-(3,4-Dichlorophenyl)-D,L-alaninyl)amino-ε-caprolactam]: the melting point is 199 °C.
With `COC(=O)[C@@H](NC(=O)CC1CCCC1)c1ccccc1` [Example B77, N-(Cyclopentylacetyl)-L-phenylglycine Methyl Ester] the figure was 83 to 86 °C.
